# Test results as given in patent US8822517B2, “Arylosulfonamides for the treatment of CNS diseases” (Adamed SP. Z O.O., priority 2010, dated 2014).
# Tests used:
# sigma σ receptor = assay: Binding assay σ (non-selective), [3H]DTG, rat cerebral cortex; conditions: percent inhibition of control specific binding; compounds tested at 1×10^−6 M
# How it was run: (§1)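 Total binding and binding under an excess of unlabelled competitor were both measured, the difference giving specific binding. Counts came from scintillation detection, and compound concentration was 1×10^−6 M.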
# [1] = target: T1, serotonine transporter (SERT) receptor (Homo sapiens, UniProt P31645); assay: Binding assay SERT (h), [3H]imipramine, CHO cells; conditions: read-out: SERT [%]
# T1 construct: expressed in transfected cells; host or cells: CHO cells
# T1 sequence (P31645 whole entry): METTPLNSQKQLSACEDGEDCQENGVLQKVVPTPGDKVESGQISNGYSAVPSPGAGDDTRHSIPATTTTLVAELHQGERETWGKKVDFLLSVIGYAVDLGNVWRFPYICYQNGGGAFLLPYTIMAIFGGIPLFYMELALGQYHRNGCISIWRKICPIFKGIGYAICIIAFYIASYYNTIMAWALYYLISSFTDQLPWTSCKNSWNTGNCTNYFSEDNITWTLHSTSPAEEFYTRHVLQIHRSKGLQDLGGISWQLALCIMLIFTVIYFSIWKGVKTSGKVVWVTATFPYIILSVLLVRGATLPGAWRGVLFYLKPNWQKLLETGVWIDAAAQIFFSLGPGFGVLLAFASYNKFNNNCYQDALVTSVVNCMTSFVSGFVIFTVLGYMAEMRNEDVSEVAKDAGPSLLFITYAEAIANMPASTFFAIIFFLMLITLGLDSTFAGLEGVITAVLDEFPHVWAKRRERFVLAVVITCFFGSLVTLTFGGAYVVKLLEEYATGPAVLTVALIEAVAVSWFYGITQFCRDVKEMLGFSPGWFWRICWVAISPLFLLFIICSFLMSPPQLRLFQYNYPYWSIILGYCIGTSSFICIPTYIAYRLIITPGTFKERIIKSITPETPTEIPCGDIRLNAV
# How it was run: as §1
# dopaminergic D2 receptor [2] = target: T2, dopaminergic D2 receptor (Homo sapiens, UniProt P14416); assay: Binding assay D2S (h), [3H]methyl-spiperone, HEK-293 cells; set-up: expressed in transfected cells; host or cells: HEK-293 cells; conditions: read-out: D2 [%]
# How it was run: as §1
# Target sequence in this assay (P14416 1-414 isoform P14416-2): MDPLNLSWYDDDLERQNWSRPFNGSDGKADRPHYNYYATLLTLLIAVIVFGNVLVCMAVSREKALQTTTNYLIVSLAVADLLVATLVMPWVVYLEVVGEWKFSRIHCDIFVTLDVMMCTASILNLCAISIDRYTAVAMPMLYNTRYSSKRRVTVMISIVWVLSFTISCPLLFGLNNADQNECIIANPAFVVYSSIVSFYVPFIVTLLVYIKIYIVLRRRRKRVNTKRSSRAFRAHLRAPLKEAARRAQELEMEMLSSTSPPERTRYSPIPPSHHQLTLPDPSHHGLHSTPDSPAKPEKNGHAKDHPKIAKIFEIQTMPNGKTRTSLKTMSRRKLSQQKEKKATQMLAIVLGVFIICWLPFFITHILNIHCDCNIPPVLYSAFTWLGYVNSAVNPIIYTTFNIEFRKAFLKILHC
# muscarinic M3 receptor = target: T3, muscarinic M3 receptor (Homo sapiens, UniProt P20309); assay: Binding assay M3 (h), [3H]4-DAMP, CHO cells; conditions: read-out: M3 [%]
# T3 construct: expressed in transfected cells; host or cells: CHO cells
# T3 sequence (P20309 whole entry): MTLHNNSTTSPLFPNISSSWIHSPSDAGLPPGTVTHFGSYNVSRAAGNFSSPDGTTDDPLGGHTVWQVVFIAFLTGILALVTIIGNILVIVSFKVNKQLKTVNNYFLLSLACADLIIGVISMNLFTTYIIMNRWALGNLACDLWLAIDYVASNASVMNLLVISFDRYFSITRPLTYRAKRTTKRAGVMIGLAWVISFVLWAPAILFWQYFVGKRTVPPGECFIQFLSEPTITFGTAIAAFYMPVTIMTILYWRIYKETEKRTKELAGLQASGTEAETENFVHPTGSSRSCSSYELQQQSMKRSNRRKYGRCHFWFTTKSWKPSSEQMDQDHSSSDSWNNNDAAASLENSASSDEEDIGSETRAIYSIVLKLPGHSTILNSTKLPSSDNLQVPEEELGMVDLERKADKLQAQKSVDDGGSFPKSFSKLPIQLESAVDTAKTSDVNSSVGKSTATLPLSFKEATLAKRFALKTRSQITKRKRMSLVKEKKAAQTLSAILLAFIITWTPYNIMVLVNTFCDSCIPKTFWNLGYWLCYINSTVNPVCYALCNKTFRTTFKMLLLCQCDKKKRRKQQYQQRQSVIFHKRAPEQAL
# How it was run: as §1
# adrenergic α2C receptor = target: T4, adrenergic α2C receptor (Homo sapiens, UniProt P18825); assay: Binding assay α2C (h), [3H]RX 821002, CHO cells; set-up: expressed in transfected cells; host or cells: CHO cells; conditions: read-out: α2C [%]
# T4 sequence (P18825 1-462): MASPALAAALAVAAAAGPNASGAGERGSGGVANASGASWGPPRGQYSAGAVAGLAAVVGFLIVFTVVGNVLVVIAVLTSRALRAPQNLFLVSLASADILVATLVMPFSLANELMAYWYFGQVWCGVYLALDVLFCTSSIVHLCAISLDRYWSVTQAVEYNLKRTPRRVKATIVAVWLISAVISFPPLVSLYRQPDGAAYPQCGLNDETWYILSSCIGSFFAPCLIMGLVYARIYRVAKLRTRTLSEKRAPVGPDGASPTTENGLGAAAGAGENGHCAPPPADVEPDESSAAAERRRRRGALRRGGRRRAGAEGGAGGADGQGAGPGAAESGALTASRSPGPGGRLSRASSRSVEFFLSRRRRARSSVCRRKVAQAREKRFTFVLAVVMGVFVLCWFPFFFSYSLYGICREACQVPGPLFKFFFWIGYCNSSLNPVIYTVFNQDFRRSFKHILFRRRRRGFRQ
# How it was run: as §1
# [3] = target: T5, serotoninergic 5-HT6 receptor (Homo sapiens, UniProt P50406); assay: Cellular functional assay, serotoninergic 5-HT6 receptor (agonism/antagonism); assay type: cell-based; conditions: for activation at 1 µM: agonist effect, percent of control specific agonist response, compounds tested at 1×10^−6M, read-out: 5-HT6-ag [%]; for inhibition at 1 µM: read-out: 5-HT6-antag. [%]
# T5 sequence (P50406 whole entry): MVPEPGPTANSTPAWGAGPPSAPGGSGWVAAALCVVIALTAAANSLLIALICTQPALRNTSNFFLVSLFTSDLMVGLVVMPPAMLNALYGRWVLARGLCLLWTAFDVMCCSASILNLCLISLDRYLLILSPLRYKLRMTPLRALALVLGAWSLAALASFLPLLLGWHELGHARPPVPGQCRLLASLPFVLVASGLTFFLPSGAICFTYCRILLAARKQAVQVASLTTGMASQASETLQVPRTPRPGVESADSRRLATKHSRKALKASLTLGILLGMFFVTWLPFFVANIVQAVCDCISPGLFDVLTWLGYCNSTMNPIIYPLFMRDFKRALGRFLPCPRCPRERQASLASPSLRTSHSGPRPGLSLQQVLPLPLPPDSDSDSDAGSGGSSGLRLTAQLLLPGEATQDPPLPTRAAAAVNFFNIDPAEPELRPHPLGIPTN
# Protocol: (§2) The compounds were tested at the concentration of 1×10^−6M.
# (§3) In the Tables ag refers to agonism, and antag to antagonism).
# [4] = target: serotoninergic 5-HT2A receptor (Homo sapiens, UniProt P28223); assay: Binding assay 5-HT2A (h), [3H]ketanserin, HEK-293 cells; set-up: expressed in transfected cells; host or cells: HEK-293 cells; conditions: read-out: 5-HT2A
# Sequence of serotoninergic 5-HT2A receptor (P28223 whole entry): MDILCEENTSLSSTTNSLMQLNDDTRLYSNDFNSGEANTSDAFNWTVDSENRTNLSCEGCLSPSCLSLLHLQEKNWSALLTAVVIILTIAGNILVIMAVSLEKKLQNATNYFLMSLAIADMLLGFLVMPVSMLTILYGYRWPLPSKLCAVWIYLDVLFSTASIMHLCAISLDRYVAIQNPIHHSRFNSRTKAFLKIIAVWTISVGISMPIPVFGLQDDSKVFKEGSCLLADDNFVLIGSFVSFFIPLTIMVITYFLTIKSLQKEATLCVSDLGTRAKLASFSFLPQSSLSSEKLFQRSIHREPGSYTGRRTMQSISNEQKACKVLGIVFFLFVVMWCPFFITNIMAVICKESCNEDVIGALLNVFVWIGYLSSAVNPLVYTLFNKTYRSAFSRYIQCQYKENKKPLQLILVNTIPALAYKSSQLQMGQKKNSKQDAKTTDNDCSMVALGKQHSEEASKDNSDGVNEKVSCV
# How it was run: as §1
# [5] = target: T6, serotoninergic 5-HT1A receptor (Homo sapiens, UniProt P08908); assay: Binding assay 5-HT1A (h), [3H]8-OH-DPAT, HEK-293 cells; set-up: expressed in transfected cells; host or cells: HEK-293 cells; conditions: read-out: 5-HT1A
# T6 sequence (P08908 1-422): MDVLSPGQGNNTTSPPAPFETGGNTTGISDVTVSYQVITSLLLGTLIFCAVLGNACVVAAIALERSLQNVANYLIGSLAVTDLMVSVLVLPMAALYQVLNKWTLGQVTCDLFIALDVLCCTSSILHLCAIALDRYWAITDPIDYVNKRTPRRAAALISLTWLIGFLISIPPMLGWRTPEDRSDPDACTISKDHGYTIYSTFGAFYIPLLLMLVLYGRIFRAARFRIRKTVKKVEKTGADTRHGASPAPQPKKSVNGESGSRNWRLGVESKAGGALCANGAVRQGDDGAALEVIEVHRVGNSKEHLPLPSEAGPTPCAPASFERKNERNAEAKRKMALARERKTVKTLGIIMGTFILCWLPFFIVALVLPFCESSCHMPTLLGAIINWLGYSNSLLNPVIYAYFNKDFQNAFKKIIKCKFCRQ
# How it was run: as §1
# [6] = target: histaminergic H1 receptor (Homo sapiens, UniProt P35367); assay: Binding assay H1 (h), [3H]pyrilamine, HEK-293 cells; set-up: expressed in transfected cells; host or cells: HEK-293 cells; conditions: read-out: H1 [%]
# Sequence of histaminergic H1 receptor (P35367 whole entry): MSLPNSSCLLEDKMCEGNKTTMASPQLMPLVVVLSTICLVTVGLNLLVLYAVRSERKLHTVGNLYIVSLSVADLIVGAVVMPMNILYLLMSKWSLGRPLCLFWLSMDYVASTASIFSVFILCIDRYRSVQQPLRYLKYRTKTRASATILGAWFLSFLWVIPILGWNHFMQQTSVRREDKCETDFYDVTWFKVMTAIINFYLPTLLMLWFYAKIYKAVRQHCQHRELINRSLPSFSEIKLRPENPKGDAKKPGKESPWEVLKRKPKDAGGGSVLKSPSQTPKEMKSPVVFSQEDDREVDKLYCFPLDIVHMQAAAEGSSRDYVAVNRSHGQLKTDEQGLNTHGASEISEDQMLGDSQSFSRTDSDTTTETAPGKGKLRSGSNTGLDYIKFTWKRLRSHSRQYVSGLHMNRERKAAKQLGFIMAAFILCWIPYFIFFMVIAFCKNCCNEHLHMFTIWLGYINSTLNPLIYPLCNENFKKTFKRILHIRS
# How it was run: as §1
# adrenergic α1 receptor = assay: Binding assay α1 (non-selective), [3H]prazosin, rat cerebral cortex; conditions: percent inhibition of control specific binding; compounds tested at 1×10^−6 M
# How it was run: as §1
# [7] = target: T7, serotoninergic receptor 5-HT2C (Homo sapiens, UniProt P28335); assay: Binding assay 5-HT2C (h), [3H]mesulergine, HEK-293 cells; conditions: read-out: 5-HT2C [%]
# T7 construct: expressed in transfected cells; host or cells: HEK-293 cells
# T7 sequence (P28335 33-458): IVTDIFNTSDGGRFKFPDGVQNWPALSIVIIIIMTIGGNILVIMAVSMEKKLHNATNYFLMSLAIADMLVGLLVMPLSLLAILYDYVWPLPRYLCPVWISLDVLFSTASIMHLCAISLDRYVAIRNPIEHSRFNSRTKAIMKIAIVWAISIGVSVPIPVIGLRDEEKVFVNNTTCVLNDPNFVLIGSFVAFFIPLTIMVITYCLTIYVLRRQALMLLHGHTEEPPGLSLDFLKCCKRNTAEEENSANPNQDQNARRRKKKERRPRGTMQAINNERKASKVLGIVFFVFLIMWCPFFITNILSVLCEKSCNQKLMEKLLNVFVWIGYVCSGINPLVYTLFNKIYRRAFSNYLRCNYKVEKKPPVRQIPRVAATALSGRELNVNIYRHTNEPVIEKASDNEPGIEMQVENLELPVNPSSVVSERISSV
# How it was run: as §1
# dopaminergic D3 receptor = dopaminergic D3 receptor (Homo sapiens, UniProt P35462); assay: Binding assay D3 (h), [3H]methyl-spiperone, CHO cells; set-up: expressed in transfected cells; host or cells: CHO cells; conditions: read-out: D3 [%]
# Sequence of dopaminergic D3 receptor (P35462 whole entry): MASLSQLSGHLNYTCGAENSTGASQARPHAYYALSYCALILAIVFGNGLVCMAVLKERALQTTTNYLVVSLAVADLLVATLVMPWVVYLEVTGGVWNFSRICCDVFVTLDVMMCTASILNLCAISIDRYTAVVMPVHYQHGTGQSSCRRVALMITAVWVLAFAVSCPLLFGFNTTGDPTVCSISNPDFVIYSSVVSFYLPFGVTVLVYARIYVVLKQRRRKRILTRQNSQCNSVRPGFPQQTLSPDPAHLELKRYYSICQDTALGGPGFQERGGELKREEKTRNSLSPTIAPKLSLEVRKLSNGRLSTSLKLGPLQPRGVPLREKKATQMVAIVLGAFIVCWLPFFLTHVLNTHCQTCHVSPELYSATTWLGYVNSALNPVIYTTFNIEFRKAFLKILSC
# How it was run: as §1
# [8] = target: T8, serotoninergic 5-HT7 receptor (Homo sapiens, UniProt P34969); assay: Binding assay 5-HT7 (h), [3H]LSD, CHO cells; set-up: expressed in transfected cells; host or cells: CHO cells; conditions: read-out: 5-HT7
# T8 sequence (P34969 whole entry): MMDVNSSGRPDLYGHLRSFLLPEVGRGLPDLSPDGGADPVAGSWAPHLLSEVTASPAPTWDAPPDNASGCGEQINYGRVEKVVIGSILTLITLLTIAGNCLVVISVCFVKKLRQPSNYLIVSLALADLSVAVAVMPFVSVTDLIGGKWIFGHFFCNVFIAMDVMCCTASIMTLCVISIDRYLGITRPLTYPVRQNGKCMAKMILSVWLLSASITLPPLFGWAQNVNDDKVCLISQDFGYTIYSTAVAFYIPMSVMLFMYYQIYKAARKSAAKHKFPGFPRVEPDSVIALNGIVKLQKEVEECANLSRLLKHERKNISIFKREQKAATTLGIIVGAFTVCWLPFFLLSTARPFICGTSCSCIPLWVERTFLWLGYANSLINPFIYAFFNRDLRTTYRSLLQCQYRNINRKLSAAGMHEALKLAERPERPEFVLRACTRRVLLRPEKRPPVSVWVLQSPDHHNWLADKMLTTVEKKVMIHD
# How it was run: as §1
# [9] = target: T5, serotoninergic 5-HT6 receptor; assay: Binding assay 5-HT6 (h), [3H]LSD, CHO cells; set-up: expressed in transfected cells; host or cells: CHO cells; conditions: read-out: 5-HT6
# How it was run: as §1
# [10] = target: T8, serotoninergic 5-HT7 receptor; assay: Cellular functional assay, serotoninergic 5-HT7 receptor (agonism/antagonism); assay type: cell-based; conditions: for activation at 1 µM: agonist effect, percent of control specific agonist response, compounds tested at 1×10^−6M, read-out: 5-HT7-ag [%]; for inhibition at 1 µM: read-out: 5-HT7-antag. [%]
# Protocol: as §2, §3
# dopaminergic D2 receptor [11] = target: T2, dopaminergic D2 receptor; assay: Cellular functional assay, dopaminergic D2 receptor (agonism/antagonism); assay type: cell-based; conditions: HEK293
# Protocol: as §2, §3
# Target sequence in this assay (P14416 whole entry): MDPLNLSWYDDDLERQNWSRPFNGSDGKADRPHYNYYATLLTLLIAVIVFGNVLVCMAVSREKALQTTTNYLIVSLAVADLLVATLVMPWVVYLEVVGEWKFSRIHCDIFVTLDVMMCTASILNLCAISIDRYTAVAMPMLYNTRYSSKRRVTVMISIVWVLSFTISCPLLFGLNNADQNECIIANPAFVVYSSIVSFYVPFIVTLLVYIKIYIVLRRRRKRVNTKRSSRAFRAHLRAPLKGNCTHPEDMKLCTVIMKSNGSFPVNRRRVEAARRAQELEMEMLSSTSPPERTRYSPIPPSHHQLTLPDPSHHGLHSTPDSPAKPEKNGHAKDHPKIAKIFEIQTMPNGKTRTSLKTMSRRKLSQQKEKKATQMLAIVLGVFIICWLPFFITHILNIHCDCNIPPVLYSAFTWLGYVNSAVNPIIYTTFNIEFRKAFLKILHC
Compound,σ [%] (sigma σ receptor),inhibition at 1 µM [1] [%],inhibition at 1 µM (dopaminergic D2 receptor [2]) [%],inhibition at 1 µM (muscarinic M3 receptor) [%],inhibition at 1 µM (adrenergic α2C receptor) [%],activation at 1 µM [3] [%],inhibition at 1 µM [3] [%],inhibition at 1 µM [4] [%],inhibition at 1 µM [5] [%],inhibition at 1 µM [6] [%],α1 [%] (adrenergic α1 receptor),inhibition at 1 µM [7] [%],inhibition at 1 µM (dopaminergic D3 receptor) [%],inhibition at 1 µM [8] [%],inhibition at 1 µM [9] [%],activation at 1 µM [10] [%],inhibition at 1 µM [10] [%],"activation at 1 µM (dopaminergic D2 receptor [11]; agonist effect, percent of control specific agonist response (3 μM dopamine for control), 1×10^−6 M, D2S (h), HEK-293 cells, read-out: D2-ag [%]) [%]",inhibition at 1 µM (dopaminergic D2 receptor [11]; read-out: D2-antag. [%]) [%]
"O=c1[nH]c2ccc(S(=O)(=O)NCCN3CCN(c4nsc5ccccc45)CC3)cc2o1 [Compound 12, N-(2-(4-(1,2-Benzothiazol-3-yl)piperazin-1-yl)ethyl)-2-oxo-3H-1,3-benzoxazole-6-sulphonamide]",4,7,93,-9,83,-1,-2,99,99,79,67,17,92,89,80,-1,68,,
"Cc1cccc(S(=O)(=O)NCCCCN2CCC(c3noc4cc(F)ccc34)CC2)c1 [Compound 19, N-[4-[4-(6-Fluoro-1,2-benzoxazol-3-yl)piperidin-1-yl]butyl]-3-methylbenzenesulphonamide]",92,8,97,9,100,-1,23,100,64,79,99,56,90,100,69,-1,99,,
"O=S(=O)(NCCCN1CCC(c2noc3cc(F)ccc23)CC1)c1cccc2ccccc12 [Compound 20, N-[3-[4-(6-Fluoro-1,2-benzoxazol-3-yl)piperidin-1-yl]propyl]naphthalene-1-sulphonamide]",81,85,98,-9,99,-2,23,100,71,78,99,75,96,101,85,-1,101,,
"O=S(=O)(NCCCN1CCC(c2noc3cc(F)ccc23)CC1)c1ccc2ccccc2c1 [Compound 21, N-[3-[4-(6-Fluoro-1,2-benzoxazol-3-yl)piperidin-1-yl]propyl]naphthalene-2-sulphonamide]",82,46,99,2,98,-2,39,100,77,90,97,87,97,99,93,0,98,,
"O=S(=O)(NCCN1CCC(c2noc3cc(F)ccc23)CC1)c1cccc2ccccc12 [Compound 23, N-[2-[4-(6-Fluoro-1,2-benzoxazol-3-yl)piperidin-1-yl]ethyl]naphthalene-1-sulphonamide]",82,68,97,-2,99,0,1,100,85,67,97,44,93,96,69,0,88,,
"O=S(=O)(NCCN1CCC(c2noc3cc(F)ccc23)CC1)c1ccc2ccccc2c1 [Compound 24, N-[2-[4-(6-Fluoro-1,2-benzoxazol-3-yl)piperidin-1-yl]ethyl]naphthalene-2-sulphonamide]",80,53,99,10,99,2,9,100,80,56,97,65,98,95,76,0,99,,
"Cc1cccc(S(=O)(=O)NCCN2CCC(c3noc4cc(F)ccc34)CC2)c1 [Compound 25, N-[2-[4-(6-Fluoro-1,2-benzoxazol-3-yl)piperidin-1-yl]ethyl]-3-methylbenzenesulphonamide]",76,20,96,6,98,0,6,100,92,62,98,32,94,98,71,-1,97,,
"O=S(=O)(NCCCCN1CCN(c2cccc3[nH]ccc23)CC1)c1csc2ccccc12 [Compound 32, N-{4-[4-(1H-Indol-4-yl)piperazin-1-yl]butyl}-1-benzothiophene-3-sulphonamide]",,,101,,,,,,,,,,,,23,,,35,89
